{"source": "patent US11458132B2", "about": "“Quinolin-2(1H)-one inhibitors of Late SV40 Factor” (TRUSTEES OF BOSTON UNIVERSITY, priority 2020, dated 2022)", "key": {"FH-B cells": {"system": "FH-B cells", "test": "Analysis of microtubule features by immunofluorescence", "format": "cell-based, human", "description": "Analysis of microtubule features by immunofluorescence: Because Y-27632 diminishes FQI1-induced cell compaction (FIGS. 10C and 10D) without affecting microtubule levels (FIGS. 9A and 9B), cells were pretreated with Y-27632 in order to maintain overall cellular shape, facilitating capture of structural or positional impact of FQI1 on microtubules. In addition, only cells with cell spreading areas larger than 1000 μm^2 were considered. Cells were seeded overnight in high n-dishes, treated as indicated in the figure legends, fixed with formaldehyde as described above, blocked in 5% BSA in PBS and stained overnight at 4° C. with anti-γ-tubulin (1:500, Abcam, ab11316) and anti-α-tubulin (1:500, Fisher Scientific, 62204). Samples were then incubated in goat anti-rabbit Cy5 (1:1000, Invitrogen, A10523), goat anti-mouse Alexa Fluor 546 (1:1000, Thermo Fisher Scientific, A11003), and Phalloidin-iFluor 488 Reagent. Hoechst 33342 and mounting medium were applied, before acquiring Z stack images at 60× magnification on an Olympus Fluoview 10i microscope.\nUsing ImageJ, binary Z projections of Phalloidin and Hoechst channel stacks were merged with Z projections with average intensity of the α-tubulin channels. The Phalloidin channel was used as the region of interest for measurement of “integrated density” of the total α-tubulin intensity, which was plotted into swarmplots.\nTo assess distribution of visible microtubule ends, the Hoechst, γ-tubulin, and α-tubulin stacks were converted into Z projections with maximum intensity. The Hoechst and γ-tubulin Z projections were thresholded and all channels were merged. A line was generated between the γ-tubulin signal and the center of the nucleus to identify the axis of cell movement; a line perpendicular to the first line and running through the center point of the nucleus divided the cell into posterior and anterior portions. Visible microtubule ends were counted using the Cell Counter plugin, excluding unattached microtubule fragments."}, "RPE cells": {"system": "RPE cells", "test": "Cell motility tracking", "format": "cell-based", "settings": "thymidine block, 4 μM FQI1; not statistically significant", "description": "Cell motility tracking: After overnight seeding in high μ-dishes, cells were synchronized by incubating in 2 mM thymidine for 18-20 hours. Thereafter, cells were treated with 4 μM FQI1 or vehicle (0.01% DMSO) for 1 hour, followed by a 10-min incubation in NucSpot® Live 650 dye (Biotium, 40082) following the manufacturer's instructions. Subsequently, cells were imaged every 2 minutes for 2 hours in an environmental chamber of a Nikon C2 Si microscope at 37° C. and 5% CO2 at 20× magnification. Cells that underwent mitosis during the 2-hour period were excluded from the analysis. Using ImageJ, individual nuclei were monitored using the Manual Tracking tool and the distances between starting and end points were integrated into swarmplots using Python's seaborn library."}}}
{"smiles": "CCOc1ccccc1C1CC(=O)Nc2cc3c(cc21)OCO3", "note": "(stereo not shown) [FQI1, 8-(2-ethoxyphenyl)-7,8-dihydro-[1,3]dioxolo[4,5-g]quinolin-6(5H)-one]", "values": [{"measurement": "anterior-posterior patterning of visible microtubule ends", "setting": "FH-B cells; 4 μM FQI1", "result": "largely unaffected"}, {"measurement": "overall α-tubulin intensity", "setting": "FH-B cells; 4 μM FQI1, 30 minutes, Y-27632 pretreated", "result": "significant decrease in overall α-tubulin intensity"}, {"measurement": "increase in the number of individually discernible microtubule ends", "setting": "FH-B cells; 4 μM FQI1, 30 minutes, vs vehicle", "result": 2.7, "unit": "fold"}, {"measurement": "cell displacement over a 2-hour period", "setting": "RPE cells", "result": "clear trend towards motility being reduced"}]}
